Source: PubChem BioAssay (NCI)
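GI50 is the concentration that inhibits growth by half. The concentration for full growth arrest is given as TGI.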

Assays:
Experiment in all cases: NCI tumour cell line growth inhibition, 384-well format
NCI-H522 lung = test system: NCI-H522 lung
MCF7 breast = test system: MCF7 breast
SK-MEL-28 melanoma = test system: SK-MEL-28 melanoma
EKVX NSCLC = test system: EKVX NSCLC
SF-295 CNS = test system: SF-295 CNS
OVCAR-8 ovarian = test system: OVCAR-8 ovarian
DU-145 prostate = test system: DU-145 prostate
SF-268 CNS = test system: SF-268 CNS
HT29 colon = test system: HT29 colon
HS 578T breast = test system: HS 578T breast
MDA-MB-468 breast = test system: MDA-MB-468 breast
SNB-75 CNS = test system: SNB-75 CNS
NCI-H226 lung = test system: NCI-H226 lung
U251 glioblastoma = test system: U251 glioblastoma
MALME-3M melanoma = test system: MALME-3M melanoma
HOP-92 NSCLC = test system: HOP-92 NSCLC
LOX IMVI melanoma = test system: LOX IMVI melanoma
MDA-MB-231 breast = test system: MDA-MB-231 breast
T-47D breast = test system: T-47D breast
CAKI-1 renal = test system: CAKI-1 renal
SF-539 CNS = test system: SF-539 CNS
SK-OV-3 ovarian = test system: SK-OV-3 ovarian
SW-620 colon = test system: SW-620 colon
NCI-H23 lung = test system: NCI-H23 lung
786-0 renal = test system: 786-0 renal
HOP-62 NSCLC = test system: HOP-62 NSCLC
NCI/ADR-RES ovarian = test system: NCI/ADR-RES ovarian
OVCAR-4 ovarian = test system: OVCAR-4 ovarian
TK-10 renal = test system: TK-10 renal
HCT-116 colon = test system: HCT-116 colon
HCC-2998 colon = test system: HCC-2998 colon
IGROV1 ovarian = test system: IGROV1 ovarian
MOLT-4 leukemia = test system: MOLT-4 leukemia
M14 melanoma = test system: M14 melanoma
NCI-H322M lung = test system: NCI-H322M lung
BT-549 breast = test system: BT-549 breast
NCI-H460 NSCLC = test system: NCI-H460 NSCLC
K-562 leukemia = test system: K-562 leukemia
COLO 205 colon = test system: COLO 205 colon
OVCAR-3 ovarian = test system: OVCAR-3 ovarian
SN12C renal = test system: SN12C renal
PC-3 prostate = test system: PC-3 prostate
MDA-MB-435 melanoma = test system: MDA-MB-435 melanoma
UACC-62 melanoma = test system: UACC-62 melanoma
SK-MEL-5 melanoma = test system: SK-MEL-5 melanoma
A549 NSCLC = test system: A549 NSCLC
KM12 colon = test system: KM12 colon
UO-31 renal = test system: UO-31 renal
UACC-257 melanoma = test system: UACC-257 melanoma
A498 renal = test system: A498 renal
CCRF-CEM leukemia = test system: CCRF-CEM leukemia
OVCAR-5 ovarian = test system: OVCAR-5 ovarian
RXF 393 renal = test system: RXF 393 renal
HCT-15 colon = test system: HCT-15 colon
ACHN renal = test system: ACHN renal
SNB-19 CNS = test system: SNB-19 CNS
RPMI-8226 leukemia = test system: RPMI-8226 leukemia
HL-60(TB) leukemia = test system: HL-60(TB) leukemia

With `COc1cc(C(=O)N[C@@H]2CCCN(C)C2)ccc1Nc1ncc2c(n1)N(C1CCCC1)CC(C)(C)C(=O)N2C` as the compound, how does the GI50 (NCI-H522 lung) read?
Its GI50 is 17.1 nM.

What about the TGI (NCI-H522 lung) of the same compound?
The TGI was 37.5 nM.

What about the GI50 (MCF7 breast) of the same compound?
Its GI50 is 28.9 nM.

And the TGI (MCF7 breast)?
The TGI was 1300 nM.

And the GI50 (SK-MEL-28 melanoma)?
Its GI50 is 128 nM.

And the TGI (SK-MEL-28 melanoma)?
The TGI was 911 nM.

And the GI50 (EKVX NSCLC)?
The GI50 was 119 nM.

What about the TGI (EKVX NSCLC) of the same compound?
Its TGI is 1880 nM.

And the GI50 (SF-295 CNS)?
The GI50 was 38.6 nM.

What about the TGI (SF-295 CNS) of the same compound?
Its TGI is 196 nM.

And the GI50 (OVCAR-8 ovarian)?
Its GI50 is 22.3 nM.

What about the TGI (OVCAR-8 ovarian) of the same compound?
The TGI was 53.9 nM.

What about the GI50 (DU-145 prostate) of the same compound?
The GI50 was 35.1 nM.

What about the TGI (DU-145 prostate) of the same compound?
Its TGI is 206 nM.

And the GI50 (SF-268 CNS)?
The GI50 was 10.5 nM.

And the TGI (SF-268 CNS)?
The TGI was 47 nM.

And the GI50 (HT29 colon)?
Its GI50 is 21.2 nM.

And the TGI (HT29 colon)?
The TGI was 68.1 nM.

And the GI50 (HS 578T breast)?
The GI50 was 16.9 nM.

What about the TGI (HS 578T breast) of the same compound?
The TGI was 89 nM.

What about the TGI (MDA-MB-468 breast) of the same compound?
The TGI was 16.3 nM.

What about the GI50 (SNB-75 CNS) of the same compound?
Its GI50 is 285 nM.

And the TGI (SNB-75 CNS)?
The TGI was 2610 nM.

What about the GI50 (NCI-H226 lung) of the same compound?
Its GI50 is 1620 nM.

And the TGI (NCI-H226 lung)?
Its TGI is 12000 nM.

What about the GI50 (U251 glioblastoma) of the same compound?
Its GI50 is 46.7 nM.

And the TGI (U251 glioblastoma)?
The TGI was 1440 nM.

And the GI50 (MALME-3M melanoma)?
Its GI50 is 45.9 nM.

What about the TGI (MALME-3M melanoma) of the same compound?
The TGI was 251 nM.

What about the GI50 (HOP-92 NSCLC) of the same compound?
Its GI50 is 88.1 nM.

What about the TGI (HOP-92 NSCLC) of the same compound?
Its TGI is 989 nM.

And the GI50 (LOX IMVI melanoma)?
The GI50 was 34.1 nM.

And the TGI (LOX IMVI melanoma)?
The TGI was 201 nM.

And the GI50 (MDA-MB-231 breast)?
The GI50 was 41.8 nM.

What about the TGI (MDA-MB-231 breast) of the same compound?
Its TGI is 2220 nM.

What about the GI50 (T-47D breast) of the same compound?
Its GI50 is 81.5 nM.

What about the TGI (T-47D breast) of the same compound?
The TGI was 892 nM.

What about the GI50 (CAKI-1 renal) of the same compound?
The GI50 was 395 nM.

What about the TGI (CAKI-1 renal) of the same compound?
Its TGI is 2640 nM.

What about the GI50 (SF-539 CNS) of the same compound?
The GI50 was 36 nM.

And the TGI (SF-539 CNS)?
The TGI was 267 nM.

And the GI50 (SK-OV-3 ovarian)?
The GI50 was 45.6 nM.

What about the TGI (SK-OV-3 ovarian) of the same compound?
Its TGI is 1200 nM.

What about the GI50 (SW-620 colon) of the same compound?
The GI50 was 20.5 nM.

What about the TGI (SW-620 colon) of the same compound?
Its TGI is 114 nM.

And the GI50 (NCI-H23 lung)?
Its GI50 is 17.6 nM.

And the TGI (NCI-H23 lung)?
The TGI was 52.6 nM.

And the GI50 ([…]-0 renal)?
The GI50 was 63.8 nM.

What about the TGI (786-0 renal) of the same compound?
Its TGI is 1440 nM.

And the GI50 (HOP-62 NSCLC)?
Its GI50 is 31.7 nM.

And the TGI (HOP-62 NSCLC)?
Its TGI is 598 nM.

And the GI50 (NCI/ADR-RES ovarian)?
Its GI50 is 695 nM.

What about the TGI (NCI/ADR-RES ovarian) of the same compound?
Its TGI is 2340 nM.

And the GI50 (OVCAR-4 ovarian)?
The GI50 was 1110 nM.

And the TGI (OVCAR-4 ovarian)?
Its TGI is 2780 nM.

And the GI50 (TK-10 renal)?
Its GI50 is 1170 nM.

What about the TGI (TK-10 renal) of the same compound?
Its TGI is 4970 nM.

And the GI50 (HCT-116 colon)?
The GI50 was 39.4 nM.

And the TGI (HCT-116 colon)?
Its TGI is 705 nM.

What about the GI50 (HCC-2998 colon) of the same compound?
Its GI50 is 21.8 nM.

And the TGI (HCC-2998 colon)?
The TGI was 94.2 nM.

And the GI50 (IGROV1 ovarian)?
The GI50 was 45.7 nM.

And the TGI (IGROV1 ovarian)?
The TGI was 1670 nM.

What about the GI50 (MOLT-4 leukemia) of the same compound?
The GI50 was 13.3 nM.

What about the TGI (MOLT-4 leukemia) of the same compound?
The TGI was 26.4 nM.

What about the GI50 (M14 melanoma) of the same compound?
Its GI50 is 27.3 nM.

What about the TGI (M14 melanoma) of the same compound?
Its TGI is 136 nM.

What about the GI50 (NCI-H322M lung) of the same compound?
The GI50 was 510 nM.

What about the TGI (NCI-H322M lung) of the same compound?
Its TGI is 3730 nM.

And the GI50 (BT-549 breast)?
The GI50 was 43.2 nM.

What about the TGI (BT-549 breast) of the same compound?
Its TGI is 309 nM.

And the GI50 (NCI-H460 NSCLC)?
Its GI50 is 21.7 nM.

And the TGI (NCI-H460 NSCLC)?
The TGI was 47.9 nM.

And the GI50 (K-562 leukemia)?
The GI50 was 19.1 nM.

And the TGI (K-562 leukemia)?
Its TGI is 55.4 nM.

And the GI50 (COLO 205 colon)?
Its GI50 is 19.5 nM.

And the TGI (COLO 205 colon)?
Its TGI is 71.4 nM.

What about the GI50 (OVCAR-3 ovarian) of the same compound?
Its GI50 is 18.1 nM.

What about the TGI (OVCAR-3 ovarian) of the same compound?
The TGI was 47.9 nM.

And the GI50 (SN12C renal)?
The GI50 was 94.2 nM.

What about the TGI (SN12C renal) of the same compound?
The TGI was 2210 nM.

What about the GI50 (PC-3 prostate) of the same compound?
Its GI50 is 62.1 nM.

What about the TGI (PC-3 prostate) of the same compound?
The TGI was 2620 nM.

What about the GI50 (MDA-MB-435 melanoma) of the same compound?
Its GI50 is 19 nM.

What about the TGI (MDA-MB-435 melanoma) of the same compound?
Its TGI is 40.6 nM.

And the GI50 (UACC-62 melanoma)?
The GI50 was 33.7 nM.

And the TGI (UACC-62 melanoma)?
Its TGI is 252 nM.

And the GI50 (SK-MEL-5 melanoma)?
Its GI50 is 25.3 nM.

And the TGI (SK-MEL-5 melanoma)?
Its TGI is 133 nM.

What about the GI50 (A549 NSCLC) of the same compound?
The GI50 was 38.7 nM.

And the TGI (A549 NSCLC)?
The TGI was 1090 nM.

What about the GI50 (KM12 colon) of the same compound?
Its GI50 is 17 nM.

What about the TGI (KM12 colon) of the same compound?
Its TGI is 1050 nM.

What about the GI50 (UO-31 renal) of the same compound?
Its GI50 is 345 nM.

And the TGI (UO-31 renal)?
The TGI was 1390 nM.

And the GI50 (UACC-257 melanoma)?
The GI50 was 40.8 nM.

And the TGI (UACC-257 melanoma)?
Its TGI is 612 nM.

What about the GI50 (A498 renal) of the same compound?
The GI50 was 206 nM.

What about the TGI (A498 renal) of the same compound?
The TGI was 1850 nM.

And the TGI (CCRF-CEM leukemia)?
The TGI was 21.3 nM.

What about the GI50 (OVCAR-5 ovarian) of the same compound?
The GI50 was 35.9 nM.

What about the TGI (OVCAR-5 ovarian) of the same compound?
Its TGI is 1220 nM.

And the GI50 (RXF 393 renal)?
Its GI50 is 20 nM.

And the TGI (RXF 393 renal)?
The TGI was 61.4 nM.

What about the GI50 (HCT-15 colon) of the same compound?
The GI50 was 69.6 nM.

And the TGI (HCT-15 colon)?
The TGI was 334 nM.

And the GI50 (ACHN renal)?
The GI50 was 541 nM.

What about the TGI (ACHN renal) of the same compound?
Its TGI is 2230 nM.

What about the GI50 (SNB-19 CNS) of the same compound?
The GI50 was 50.1 nM.

And the TGI (SNB-19 CNS)?
Its TGI is 1850 nM.

What about the GI50 (RPMI-8226 leukemia) of the same compound?
The GI50 was 31.6 nM.

What about the TGI (RPMI-8226 leukemia) of the same compound?
The TGI was 101 nM.

And the GI50 (HL-60(TB) leukemia)?
The GI50 was 14.3 nM.

What about the TGI (HL-60(TB) leukemia) of the same compound?
Its TGI is 28.3 nM.
